Values of other authors, collected in patent publication US8057823B2, “Lipid nanocapsules, preparation process and use as medicine” (Universite d'Angers, priority 2000, dated 2011).

solubility in water	SMILES
virtually insoluble	CS(=O)(=O)OCCCCOS(C)(=O)=O [busulfan]
virtually insoluble	CC(=O)[C@H]1CC[C@H]2[C@@H]3CCC4=CC(=O)CC[C@]4(C)[C@H]3CC[C@]12C [progesterone]
